Laboratory results from patent US20100285145A1, “GPR 119 MODULATORS” (PFIZER INC, priority 2009, published 2010).

Tests used:
male Wistar rats [1] = assay: Intraperitoneal glucose tolerance test (IPGTT); type: in vivo; conditions: rat, 20 mg/kg in 0.5% methylcellulose, IP glucose administered 30 minutes post dose
male Wistar rats [2] = assay: Oral glucose tolerance test (OGTT); type: in vivo; conditions: rat; for Glucose 0-120 min AUC (percent vehicle response): 30 min before glucose 2 g/kg
Source text: All in vivo protocols were approved by the Pfizer's Animal Welfare Committee. Naive male Wistar rats (225-250 g body weight on receipt) were obtained from Harlan Laboratories (Indianapolis, Ind.), were pair housed in hanging plastic caging on Sani-chips sawdust bedding, and fed ad libitum on Purina 5001 chow. The rats were housed under a controlled light cycle (light from 6 am to 6 pm) at controlled temperature and humidity conditions. Rats were acclimated to the facility for at least 1 week prior to study.
Example 17 was formulated in 0.5% methylcellulose. The highest dose (30 mg/kg) was formulated at 6 mg/mL for administration at 5 mL/kg, the required bulk was added to a mortar and ground with a small amount of 0.5% methylcellulose to a smooth paste with a pestle, additional 0.5% methylcellulose was added until the mixture flowed, when it was transferred to a stirred container, the mortar was rinsed several times with remaining quantity of 0.5% methylcellulose and capped to prevent evaporation. The suspension was stirred continuously overnight with a magnetic stir bar prior to study, and the lower doses were diluted from the 6 mg/mL suspension using the appropriate volume of 0.5% methylcellulose. All dosing suspensions were stirred throughout the dosing procedure.
Rats were stratified (n=8/group) to vehicle (0.5% methylcellulose) or one of three dose groups (1, 5, or 30 mg/kg) according to body weight on day-1 to ensure that each group had equal group mean body weight values. The rats were fasted overnight in clean cages overnight (˜15 hours) prior to the oral glucose tolerance test. Body weights were recorded on the morning of the study (post fasting) for dose volume calculation. Blood samples were collected from all rats prior to dosing with vehicle or test compound via oral gavage (5 mL/kg). Thirty minutes later rats were bled and immediately dose with an oral dose of glucose (2 g/kg). The rats were re-bled at 15, 30, 60 and 120 minutes post-glucose load. Blood samples (˜250 μL/time point) were collected into EDTA tubes with aprotinin/DPPIVi (0.6 TIU/2 μL per mL whole blood). Blood tubes were inverted several times immediately following collection and placed on ice, then spun at 14,000 rpm in a refrigerated centrifuge for 5 minutes. Plasma samples were analyzed for glucose levels using a Roche 912 clinical chemistry analyzer, plasma insulin concentrations were determined using the Alpco Ultra-Sensitive Insulin Rat ELISA, and total amide GLP-1 concentrations were determined using MSD ELISA kit.
The results are presented as mean+/−SEM (standard error of the mean) unless otherwise stated. Statistical evaluation of the data is carried out using one-way analysis of variance (ANOVA) with appropriate post-hoc analysis between vehicle and treatment group. Differences compared to vehicle with a p>0.05 were considered statistically significant using Dunnett's T-test.

Question: For `CC(C)OC(=O)N1CCC(Oc2cc(N3CCc4cc(S(C)(=O)=O)ccc43)ncn2)CC1` [Example 3, Isopropyl 4-({6-[5-(methylsulfonyl)-2,3-dihydro-1H-indol-1-yl]pyrimidin-4-yl}oxy)piperidine-1-carboxylate], which “Insulin AUC (0-60 min) (percent vehicle response)” value (male Wistar rats [1]) is on record?
Answer: 104 percent vehicle response

Question: With `Cc1c(O[C@H]2CCN(C(=O)OC3(C)CC3)C[C@H]2F)ncnc1N1CCc2ncccc21` [Example 17, 1-Methylcyclopropyl (3R,4S)-4-{[6-(2,3-dihydro-1H-pyrrolo[3,2-b]pyridin-1-yl)-5-methylpyrimidin-4-yl]oxy}-3-fluoropiperidine-1-carboxylate] as the compound, how does the “Insulin 0-60 min AUC (percent vehicle response)” value (male Wistar rats [2]; 1 mg/kg oral) read?
Answer: 90 percent vehicle response

Question: What about the “Total Amide GLP-1 0-120 min AUC (percent vehicle response)” value (male Wistar rats [2]; 1 mg/kg oral) of the same compound?
Answer: 147 percent vehicle response

Question: What about the “Glucose 0-120 min AUC (percent vehicle response)” value (male Wistar rats [2]; 1 mg/kg oral) of the same compound?
Answer: 102 percent vehicle response

Question: And the “Insulin 0-60 min AUC (percent vehicle response)” value (male Wistar rats [2]; 5 mg/kg oral)?
Answer: 142 percent vehicle response

Question: And the “Total Amide GLP-1 0-120 min AUC (percent vehicle response)” value (male Wistar rats [2]; 5 mg/kg oral)?
Answer: +184 percent vehicle response

Question: What about the “Glucose 0-120 min AUC (percent vehicle response)” value (male Wistar rats [2]; 5 mg/kg oral) of the same compound?
Answer: 95 percent vehicle response

Question: What about the “Insulin 0-60 min AUC (percent vehicle response)” value (male Wistar rats [2]; 30 mg/kg oral) of the same compound?
Answer: 112 percent vehicle response

Question: What about the “Total Amide GLP-1 0-120 min AUC (percent vehicle response)” value (male Wistar rats [2]; 30 mg/kg oral) of the same compound?
Answer: 150 percent vehicle response

Question: What about the “Glucose 0-120 min AUC (percent vehicle response)” value (male Wistar rats [2]; 30 mg/kg oral) of the same compound?
Answer: ++90 percent vehicle response
